What all share (assay type): cell-based
The target of test [1] is kinases in BCWM.1 cells (Homo sapiens, UniProt Q04759). The conditions noted are these: PKCt; ATP Loop; 1 μM, 90 min; GF. The method, then: (§1) The cells were harvested and lysed. […] Bound kinases were identified and quantitated by ACTIVX as described in Patricelli et al., Biochemistry, 2007, 46(2): 350-358. The compounds were tested in duplicates against duplicate or quadruplicate control samples.

Test [2] addresses kinases in BCWM.1 cells (Homo sapiens, UniProt Q8IVH8). The conditions noted are these: KHS2; Lys1; 1 μM; GF. On the procedure: as §1
The target of test [3] is kinases in BCWM.1 cells (Homo sapiens, UniProt Q9NWZ3). As to conditions: IRAK4; Lys2; 1 μM; GF. On the procedure: as §1
For test [4], the target named is kinases in BCWM.1 cells (Homo sapiens, UniProt Q14680). The conditions noted are these: MELK; Lys2; 1 μM; GF. On the procedure: as §1
The target of test [5] is kinases in BCWM.1 cells (Homo sapiens, UniProt Q9C0K7). As to conditions: STLK6; Lys1; 1 μM, 90 min; GF. On the procedure: as §1
Test [6] deals with kinases in BCWM.1 cells (Homo sapiens, UniProt P50750). The conditions noted are these: CDK9; Lys2; 1 μM; GF. The method, then: as §1
For test [7], the target named is kinases in BCWM.1 cells (Homo sapiens, UniProt Q9Y4K4). The conditions noted are these: KHS1; Lys1; 1 μM; GF. On the procedure:
as §1

In test [8] the target is kinases in BCWM.1 cells (Homo sapiens, UniProt Q14164). As to conditions: IKKe; Lys1; 1 μM; GF. The method, then:
as §1

Test [9] has as its target kinases in BCWM.1 cells (Homo sapiens, UniProt P27361). The conditions noted are these: Erk1; Lys2; 1 μM; GF. The method, then:
as §1

Test [10] addresses kinases in BCWM.1 cells (Homo sapiens, UniProt P17612). As to conditions: PKACa; Lys2; 1 μM, 90 min; GF. On the procedure: as §1
Test [11] has as its target kinases in BCWM.1 cells (Homo sapiens, UniProt P50613). As to conditions: CDK7; Lys2; 1 μM; GF. On the procedure:
as §1

Test [12] addresses kinases in BCWM.1 cells (Homo sapiens, UniProt Q00534). As to conditions: CDK6; Lys2; 1 μM; GF. The method, then: as §1
For test [13], the target named is kinases in BCWM.1 cells (Homo sapiens, UniProt Q16513). As to conditions: PKN2; Lys2; 1 μM, 90 min; GF. The method, then: as §1
Test [14] has as its target kinases in BCWM.1 cells (Homo sapiens, UniProt Q9Y616). The conditions noted are these: IRAK3; Lys1; 1 μM; GF. The method, then:
as §1

Test [15] concerns the target kinases in BCWM.1 cells (Homo sapiens, UniProt P15056). The conditions noted are these: BRAF; Lys2; 1 μM; GF. The method, then: as §1
The target in test [16] is kinases in BCWM.1 cells (Homo sapiens, UniProt Q13233). As to conditions: MAP3K1; Lys2; 1 μM; GF. On the procedure: as §1
Chain of kinases in BCWM.1 cells (Homo sapiens, UniProt Q13233) (Q13233 2-1512 limits assumed): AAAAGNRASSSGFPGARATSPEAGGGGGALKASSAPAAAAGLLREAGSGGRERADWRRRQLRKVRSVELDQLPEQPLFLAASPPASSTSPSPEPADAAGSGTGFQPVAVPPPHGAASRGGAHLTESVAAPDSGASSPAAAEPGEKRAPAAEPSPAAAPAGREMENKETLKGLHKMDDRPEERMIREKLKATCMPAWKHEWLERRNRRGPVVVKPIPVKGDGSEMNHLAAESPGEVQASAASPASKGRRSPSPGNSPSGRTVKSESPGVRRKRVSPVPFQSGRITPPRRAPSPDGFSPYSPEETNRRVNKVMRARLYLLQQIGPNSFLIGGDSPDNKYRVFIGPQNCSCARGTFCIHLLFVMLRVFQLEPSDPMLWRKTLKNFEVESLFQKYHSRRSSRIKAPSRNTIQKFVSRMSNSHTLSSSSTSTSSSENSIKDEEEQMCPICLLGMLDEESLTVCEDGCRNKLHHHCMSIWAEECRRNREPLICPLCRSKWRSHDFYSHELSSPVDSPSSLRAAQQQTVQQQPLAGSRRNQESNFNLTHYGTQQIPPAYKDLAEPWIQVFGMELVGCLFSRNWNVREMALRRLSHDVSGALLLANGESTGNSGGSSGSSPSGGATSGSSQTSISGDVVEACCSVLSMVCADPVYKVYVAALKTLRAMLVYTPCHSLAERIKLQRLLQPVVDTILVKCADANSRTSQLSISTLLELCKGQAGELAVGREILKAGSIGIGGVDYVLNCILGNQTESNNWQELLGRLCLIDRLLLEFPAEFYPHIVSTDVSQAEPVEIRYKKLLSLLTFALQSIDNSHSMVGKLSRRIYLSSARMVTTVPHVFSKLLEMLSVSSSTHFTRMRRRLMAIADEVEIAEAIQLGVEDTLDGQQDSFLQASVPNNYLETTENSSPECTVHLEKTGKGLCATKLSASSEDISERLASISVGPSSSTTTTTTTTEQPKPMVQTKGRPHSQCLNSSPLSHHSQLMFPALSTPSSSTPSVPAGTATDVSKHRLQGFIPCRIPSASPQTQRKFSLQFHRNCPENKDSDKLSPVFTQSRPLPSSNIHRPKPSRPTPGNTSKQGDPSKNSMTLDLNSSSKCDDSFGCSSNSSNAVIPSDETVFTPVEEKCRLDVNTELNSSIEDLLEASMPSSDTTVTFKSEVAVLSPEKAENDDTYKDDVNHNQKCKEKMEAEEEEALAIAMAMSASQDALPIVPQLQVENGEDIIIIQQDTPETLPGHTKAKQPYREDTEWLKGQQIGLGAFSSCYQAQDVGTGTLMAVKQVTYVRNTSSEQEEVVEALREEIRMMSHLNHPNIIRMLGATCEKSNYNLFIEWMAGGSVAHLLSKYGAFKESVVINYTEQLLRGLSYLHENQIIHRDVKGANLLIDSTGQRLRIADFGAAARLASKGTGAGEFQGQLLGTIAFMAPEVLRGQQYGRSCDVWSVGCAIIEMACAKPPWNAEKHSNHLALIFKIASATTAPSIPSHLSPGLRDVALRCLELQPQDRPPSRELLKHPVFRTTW
For test [17], the target named is kinases in BCWM.1 cells (Homo sapiens, UniProt Q00536). The method, then:
as §1

Test [18] deals with kinases in BCWM.1 cells (Homo sapiens, UniProt P27448). The conditions noted are these: MARK3; Lys1; 1 μM; GF. On the procedure: as §1
The target in test [19] is kinases in BCWM.1 cells (Homo sapiens, UniProt O95835). The conditions noted are these: LATS1; Lys1; 1 μM; GF. The method, then:
as §1

The target of test [20] is kinases in BCWM.1 cells (Homo sapiens, UniProt Q96L34). As to conditions: MARK4; Lys2; 1 μM; GF. On the procedure: as §1
Test [21] addresses kinases in BCWM.1 cells (Homo sapiens, UniProt Q13535). As to conditions: ATR; ATP; 1 μM; GF. On the procedure:
as §1

Test [22] addresses kinases in BCWM.1 cells (Homo sapiens, UniProt Q96GD4). As to conditions: AurB; Lys1; 1 μM; GF. The method, then: as §1
Test [23] deals with kinases in BCWM.1 cells (Homo sapiens, UniProt Q9Y2K2). As to conditions: QSK; Lys2; 1 μM, 90 min; GF. The method, then:
as §1

The target of test [24] is kinases in BCWM.1 cells (Homo sapiens, UniProt P23458). As to conditions: 1 μM, GF. On the procedure:
as §1

Test [25] has as its target kinases in BCWM.1 cells (Homo sapiens, UniProt Q13163). The conditions noted are these: MAP2K5; Lys2; 1 μM; GF. On the procedure:
as §1

The target of test [26] is kinases in BCWM.1 cells (Homo sapiens, UniProt P49841). As to conditions: GSK3B; Lys2; 1 μM; GF. The method, then:
as §1

Test [27] has as its target kinases in BCWM.1 cells (Homo sapiens, UniProt Q8TCG2). As to conditions: PI4K2B; ATP; 1 μM, 90 min; GF. On the procedure: as §1
The target in test [28] is kinases in BCWM.1 cells (Homo sapiens, UniProt P41743). As to conditions: PKCi; Lys1; 1 μM, 90 min; GF. On the procedure: as §1
Chain of kinases in BCWM.1 cells (Homo sapiens, UniProt P41743) (P41743 2-596 limits assumed): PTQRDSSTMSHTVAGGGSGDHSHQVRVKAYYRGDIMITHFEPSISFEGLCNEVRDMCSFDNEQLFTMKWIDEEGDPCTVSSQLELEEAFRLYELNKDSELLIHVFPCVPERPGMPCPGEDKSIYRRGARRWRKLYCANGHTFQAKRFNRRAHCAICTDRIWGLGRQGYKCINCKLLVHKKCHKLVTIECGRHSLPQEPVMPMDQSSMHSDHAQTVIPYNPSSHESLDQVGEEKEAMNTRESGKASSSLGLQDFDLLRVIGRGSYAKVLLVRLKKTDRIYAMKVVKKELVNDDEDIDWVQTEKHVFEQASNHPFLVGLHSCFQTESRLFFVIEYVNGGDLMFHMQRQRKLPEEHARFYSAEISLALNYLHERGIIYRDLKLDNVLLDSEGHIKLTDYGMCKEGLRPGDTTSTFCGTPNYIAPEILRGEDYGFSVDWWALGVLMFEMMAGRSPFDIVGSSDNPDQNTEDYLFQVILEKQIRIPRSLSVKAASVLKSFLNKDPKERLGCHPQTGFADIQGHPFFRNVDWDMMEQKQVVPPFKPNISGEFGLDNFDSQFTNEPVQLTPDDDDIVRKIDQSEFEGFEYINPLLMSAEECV
For test [29], the target named is kinases in BCWM.1 cells (Homo sapiens, UniProt Q16584). The conditions noted are these: MLK3; Lys2; 1 μM; GF. On the procedure:
as §1

Test [30] has as its target kinases in BCWM.1 cells (Homo sapiens, UniProt P54762). The conditions noted are these: EphB1; Activation Loop; 1 μM; GF. The method, then: as §1

Results on 2 compounds are retold here after patent US10844077B2, “Thiazolyl-containing compounds for treating proliferative diseases” (Dana-Farber Cancer Institute, Inc., priority 2014, dated 2020).

Molecules are shown by their SMILES. Where “and” joins values, the source holds several entries; their conditions need not be identical. Equal values may be shown once. Read-outs that look alike come from different tables or passages of the source.

Chain of kinases in BCWM.1 cells (Homo sapiens, UniProt P54762) (P54762 18-984 limits assumed): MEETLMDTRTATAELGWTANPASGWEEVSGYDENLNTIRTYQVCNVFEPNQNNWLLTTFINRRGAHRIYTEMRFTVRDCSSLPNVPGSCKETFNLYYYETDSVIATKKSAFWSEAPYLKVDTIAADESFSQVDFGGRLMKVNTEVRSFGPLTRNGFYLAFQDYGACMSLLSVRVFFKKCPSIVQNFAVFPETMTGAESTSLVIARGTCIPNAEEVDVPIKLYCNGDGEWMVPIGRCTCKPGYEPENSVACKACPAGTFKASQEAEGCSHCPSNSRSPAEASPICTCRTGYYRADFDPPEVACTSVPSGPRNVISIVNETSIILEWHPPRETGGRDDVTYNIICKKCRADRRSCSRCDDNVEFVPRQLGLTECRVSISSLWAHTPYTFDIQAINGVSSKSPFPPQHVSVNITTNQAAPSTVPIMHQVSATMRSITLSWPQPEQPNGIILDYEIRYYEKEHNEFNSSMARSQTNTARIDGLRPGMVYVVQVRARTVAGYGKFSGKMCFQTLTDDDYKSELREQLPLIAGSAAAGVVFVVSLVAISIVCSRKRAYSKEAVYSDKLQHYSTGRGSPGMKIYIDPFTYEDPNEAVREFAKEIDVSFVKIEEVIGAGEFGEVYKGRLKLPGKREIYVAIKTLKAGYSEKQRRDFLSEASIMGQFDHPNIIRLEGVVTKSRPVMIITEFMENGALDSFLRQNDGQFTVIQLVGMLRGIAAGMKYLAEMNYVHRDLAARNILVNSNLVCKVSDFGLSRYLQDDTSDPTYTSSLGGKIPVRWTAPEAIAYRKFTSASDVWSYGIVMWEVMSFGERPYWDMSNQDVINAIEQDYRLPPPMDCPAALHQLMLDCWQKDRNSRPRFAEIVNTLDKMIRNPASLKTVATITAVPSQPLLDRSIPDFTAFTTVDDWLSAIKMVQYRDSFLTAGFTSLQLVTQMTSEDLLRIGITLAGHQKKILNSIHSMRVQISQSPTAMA
Chain of kinases in BCWM.1 cells (Homo sapiens, UniProt P50613) (P50613 2-346 limits assumed): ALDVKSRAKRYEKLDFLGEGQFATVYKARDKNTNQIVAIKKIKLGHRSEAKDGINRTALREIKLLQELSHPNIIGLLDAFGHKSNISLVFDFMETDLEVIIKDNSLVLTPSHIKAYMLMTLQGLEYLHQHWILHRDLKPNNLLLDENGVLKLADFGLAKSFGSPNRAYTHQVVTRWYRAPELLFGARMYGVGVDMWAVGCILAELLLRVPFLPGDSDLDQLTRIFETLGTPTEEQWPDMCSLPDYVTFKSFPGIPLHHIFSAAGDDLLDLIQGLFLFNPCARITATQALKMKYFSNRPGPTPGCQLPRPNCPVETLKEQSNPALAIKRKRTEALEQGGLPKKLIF
Chain of kinases in BCWM.1 cells (Homo sapiens, UniProt P27361) (P27361 2-379 limits assumed): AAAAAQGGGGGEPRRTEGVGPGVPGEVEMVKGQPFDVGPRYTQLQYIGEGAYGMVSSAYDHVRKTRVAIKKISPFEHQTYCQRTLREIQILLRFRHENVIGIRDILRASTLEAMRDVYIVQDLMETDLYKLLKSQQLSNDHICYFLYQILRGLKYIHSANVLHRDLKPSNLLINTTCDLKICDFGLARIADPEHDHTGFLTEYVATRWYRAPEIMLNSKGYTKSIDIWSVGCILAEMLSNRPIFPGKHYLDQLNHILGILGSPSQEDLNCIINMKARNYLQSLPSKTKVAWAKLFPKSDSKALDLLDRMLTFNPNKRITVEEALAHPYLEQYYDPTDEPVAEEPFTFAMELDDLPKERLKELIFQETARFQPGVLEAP
Chain of kinases in BCWM.1 cells (Homo sapiens, UniProt P15056) (P15056 2-766 limits assumed): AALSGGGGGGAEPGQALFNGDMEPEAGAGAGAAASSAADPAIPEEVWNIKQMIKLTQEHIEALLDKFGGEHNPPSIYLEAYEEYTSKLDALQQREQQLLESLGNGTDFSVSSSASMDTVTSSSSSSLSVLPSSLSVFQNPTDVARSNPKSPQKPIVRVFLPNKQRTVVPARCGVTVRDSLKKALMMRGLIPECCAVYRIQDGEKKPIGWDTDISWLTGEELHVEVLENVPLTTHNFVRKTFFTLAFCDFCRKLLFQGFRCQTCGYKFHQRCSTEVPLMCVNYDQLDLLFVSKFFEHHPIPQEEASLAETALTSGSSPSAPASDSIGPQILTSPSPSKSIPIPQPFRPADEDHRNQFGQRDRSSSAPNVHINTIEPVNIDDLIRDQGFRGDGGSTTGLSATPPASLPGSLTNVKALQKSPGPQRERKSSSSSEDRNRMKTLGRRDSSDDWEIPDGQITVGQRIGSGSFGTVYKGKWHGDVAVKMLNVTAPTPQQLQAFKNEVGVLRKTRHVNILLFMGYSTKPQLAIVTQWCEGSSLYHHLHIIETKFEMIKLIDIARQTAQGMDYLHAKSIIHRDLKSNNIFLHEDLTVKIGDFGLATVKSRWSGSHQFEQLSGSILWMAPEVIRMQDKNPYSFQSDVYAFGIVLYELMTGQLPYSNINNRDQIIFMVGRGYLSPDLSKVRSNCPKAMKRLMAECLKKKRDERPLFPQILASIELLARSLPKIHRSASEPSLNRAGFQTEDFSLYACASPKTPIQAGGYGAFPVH

Consider `C=CC(=O)N1CC[C@H](Nc2nccc(Nc3ncc(C(=O)Nc4c(C)cccc4C)s3)n2)C1` [Example I-3], for which the “% change of MS signal compared to control sample” value (from here on “% change of MS signal”) on kinases in BCWM.1 cells [1] worked out at 23.5%.

As to `CCC(=O)N1CC[C@H](Nc2nccc(Nc3ncc(C(=O)Nc4c(C)cccc4C)s3)n2)C1` [Example I-9], the “% change of MS signal” value was −23.6% and −22.7% on kinases in BCWM.1 cells [2]; −3.2% and 6.2% at kinases in BCWM.1 cells [3]; −9.6% and −9.5% at kinases in BCWM.1 cells [4]; 4.8% at kinases in BCWM.1 cells [5]; 32.7% and 23.1% on kinases in BCWM.1 cells [6]; −7.5% and −8.7% at kinases in BCWM.1 cells [7]. Moreover, the “% change of MS signal” value is −12.6% and −6.1% on kinases in BCWM.1 cells [8]; −3.1% and 3.1% on kinases in BCWM.1 cells [9]; −8.4% on kinases in BCWM.1 cells [10]; 1.3% and 5.1% at kinases in BCWM.1 cells [11]; 2.7% and 3.5% at kinases in BCWM.1 cells [12]; 13.6% on kinases in BCWM.1 cells [13]. Moreover, the “% change of MS signal” value at kinases in BCWM.1 cells [14] is 7.2% and −1.4%; at kinases in BCWM.1 cells [15], −18.3% and −12.9%; at kinases in BCWM.1 cells [16], 11.1% and 9.8%; on kinases in BCWM.1 cells [17] it was 6.5%; on kinases in BCWM.1 cells [18] it was −6.4% and −4.8%; on kinases in BCWM.1 cells [19] it was −2.8% and 5.4%. The “% change of MS signal” value at kinases in BCWM.1 cells [20] is −12.2% and −10.2%; at kinases in BCWM.1 cells [21], 28.1% and 16.5%; at kinases in BCWM.1 cells [22] it was −20.6% and −21.5%; at kinases in BCWM.1 cells [23], 2.5%; on kinases in BCWM.1 cells [24] (JAK1, Protein Kinase Domain), −11.5% and −6.7%; on kinases in BCWM.1 cells [24] (JAK1 domain2, Activation Loop) it was −15.6% and −13.9%. Also, the “% change of MS signal” value is −18.1% and −14.4% on kinases in BCWM.1 cells [24] (JAK1 domain2, Lys1); 16.8% and 16.3% on kinases in BCWM.1 cells [25]; −9.8% and −1.3% at kinases in BCWM.1 cells [26]; 6.5% on kinases in BCWM.1 cells [27]; 18.6% at kinases in BCWM.1 cells [28]; 24.1% at kinases in BCWM.1 cells [29]. In addition, the “% change of MS signal” value at kinases in BCWM.1 cells [30] is 53.3% and 78.9%.
